The source of these data is PMC8234192 (2021).

The test deals with dsDNA (69 bp) (DNA, duplex) GATACGAGCATCGTGTAGGCATCGTAGGTAATACGGATGTGCTAGCTTATTGAATTCAGAGATCTATGC/GCATAGATCTCTGAATTCAATAAGCTAGCACATCCGTATTACCTACGATGCCTACACGATGCTCGTATC
Description: fluorescence molecular brightness titration (FCS set-up). The following applies: 137 mM Na+, 2.7 mM K+, PBS pH 7.4, 0.002% Tween20, 25 °C, 20 nM YOYO-1, mono-intercalation step, 3.5 bp per site.

Structures are written as SMILES.

On to `CN1C(=Cc2cc[n+](CCC[N+](C)(C)CCC[N+](C)(C)CCC[n+]3ccc(C=C4Oc5ccccc5N4C)c4ccccc43)c3ccccc23)Oc2ccccc21`, for which the K1 is 3.36 ± 0.43 × 10^7 M^-1.
